From PMC6150406, “Adding an Artificial Tail—Anchor to a Peptide-Based HIV-1 Fusion Inhibitor for Improvement of Its Potency and Resistance Profile” (Molecules : A Journal of Synthetic Chemistry and Natural …, 2017)
Read-outs that look alike come from different tables or passages of the source. Where a SMILES comes first, the peptide text is derived from it.

How the values were obtained:
[1] = target: T1, 6-HB formation between N46 and C34 (Human immunodeficiency virus type 1 group M subtype B, UniProt P04578); assay: Inhibition of 6-HB formation between N46 and C34 (ELISA, NC-1); format: biochemical, HIV-1; conditions: ELISA with NC-1 mAb; 1 μM N46; 37 °C 30 min then 1 h; A450
T1 construct: NHR peptide N46 (aa 536-581 of NHR)
T1 sequence (P04578 536-581): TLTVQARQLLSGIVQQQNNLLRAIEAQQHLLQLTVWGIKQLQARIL
Protocol: The inhibitory activity of peptides on 6-HB formation was measured by a modified ELISA as previously described. Briefly, a 96-well polystyrene plate (Costar, Corning Inc., Corning, NY, USA) was coated with 50 μL 2 μg/mL NY364 (a polyclonal antibody for HIV-1 gp41 subunit) in 0.1 M Tris buffer (pH 8.8). A mixture of 1 μM N46 and C-peptide with graded concentrations was added to the coated plate after incubation at 37 °C for 30 min. After another 1 hour incubation at 37 °C, the plate was washed with washing buffer (PBS containing 0.1% Tween 20) three times and refilled by 50 μL 1 μg/mL NC-1 (a monoclonal antibody specific for HIV-1 gp41 6-HB formed by NHR and CHR). Afterwards, 50 μL of horseradish peroxidase (HRP)-labeled rabbit anti-mouse antibody (Sigma, St. Louis, MO, USA) (1:4000 diluted) were added to the wells of plate, followed by incubation for 1 h and washing. Finally, the substrate 3,3,5,5-tetramethylbenzidine (TMB, Sigma, St. Louis, MO, USA) was added. Absorbance at 450 nm (A450) was tested by an ELISA reader (Ultra 384, Tecan, NC, USA).

HIV-1 K90E = conditions: T2635-resistant K90E; p24 ELISA
Protocol: (§1) Inhibitory activities of peptides on infection by laboratory-adapted HIV-1 X4 strain IIIB and HIV-1 R5 strain Bal, and HIV-1 clinical strains, as well as T20-, T2635- and HP23-resistant strains, were determined as described previously. For each well of the 96-well plate, 104 MT-2 cells or CEMx174 5.25 M7 cells with graded concentrations of peptide were infected by […] TCID50 of the HIV-1 virus X4 or R5 strains, respectively. After overnight culture, the medium was replaced with fresh RPMI 1640 medium containing 10% FBS. Fifty microliters of culture supernatant were collected from each well on the fourth day for MT-2 cells and the seventh day for CEMx174 5.25 M7 cells. The supernatant was mixed with equal volumes of 5% Triton X-100. The p24 antigen was detected by ELISA as previously described. IC50 values were calculated using the Calcusyn software program (Biosoft, Ferguson, MO, USA).

90US_873 (B, R5) = conditions: clinical isolate 90US_873 (B, R5); CEMx174 5.25 M7 cells, p24 ELISA day 7
Protocol: as §1

HIV-1 H3C = conditions: T2635-resistant H3C; p24 ELISA
Protocol: as §1

93BR020 (F, X4/R5) = conditions: clinical isolate 93BR020 (F, X4/R5); p24 ELISA
Protocol: as §1

HIV-1 V38A, N42D = conditions: T20-resistant V38A, p24 ELISA
Protocol: as §1

KNH1135 (A, R5) = conditions: clinical isolate KNH1135 (A, R5); CEMx174 5.25 M7 cells, p24 ELISA day 7
Protocol: as §1

HIV-1 D36G/E49K/N126K = conditions: HP23-resistant D36G/E49K/N126K; p24 ELISA
Protocol: as §1

HIV-1 Q66R/N113E = conditions: T2635-resistant Q66R/N113E; p24 ELISA
Protocol: as §1

HIV-1 E49K = conditions: HP23-resistant E49K; p24 ELISA
Protocol: as §1

HIV-1 WT = conditions: WT of T20-resistant panel; p24 ELISA
Protocol: as §1

HIV-1 V38E, N42S = conditions: T20-resistant V38E, p24 ELISA
Protocol: as §1

KER2018 (A, R5) = conditions: clinical isolate KER2018 (A, R5); CEMx174 5.25 M7 cells, p24 ELISA day 7
Protocol: as §1

US4GS007 (B, R5) = conditions: clinical isolate US4GS007 (B, R5); CEMx174 5.25 M7 cells, p24 ELISA day 7
Protocol: as §1

HIV-1 A6V = conditions: T2635-resistant A6V; p24 ELISA
Protocol: as §1

HIV-1 wild-type = conditions: p24 ELISA
Protocol: as §1

92TH009 (A/E, R5) = conditions: clinical isolate 92TH009 (A/E, R5); CEMx174 5.25 M7 cells, p24 ELISA day 7
Protocol: as §1

HIV-1 Bal (R5 virus) = conditions: read-out: IC50, HIV-1 Bal infection; CEMx174 5.25 M7 cells; p24 ELISA, seventh day
Protocol: as §1

BK132/GS009 (B, X4) = conditions: clinical isolate BK132/GS009 (B, X4); MT-2 cells, p24 ELISA day 4
Protocol: as §1

HIV-1 Q79E/N126K = conditions: T2635-resistant Q79E/N126K; p24 ELISA
Protocol: as §1

HIV-1 E49K/N126K = conditions: HP23-resistant E49K/N126K; p24 ELISA
Protocol: as §1

HIV-1 IIIB (X4 virus) = conditions: read-out: IC50, HIV-1 IIIB infection; MT-2 cells; p24 ELISA, fourth day
Protocol: as §1

HIV-1 Q79E = conditions: T2635-resistant Q79E; p24 ELISA
Protocol: as §1

[2] = test system: HIV-1 L34S/D36G/E49K/E136G; conditions: HP23-resistant L34S/D36G/E49K/E136G; p24 ELISA
Protocol: as §1

NP1525 (A/E, X4/R5) = conditions: clinical isolate NP1525 (A/E, X4/R5); p24 ELISA
Protocol: as §1

HIV-1 K90E/N126K = conditions: T2635-resistant K90E/N126K; p24 ELISA
Protocol: as §1

HIV-1 K154Q = conditions: T2635-resistant K154Q; p24 ELISA
Protocol: as §1

HIV-1 Q66R = conditions: T2635-resistant Q66R; p24 ELISA
Protocol: as §1

HIV-1 V38A, N42T = conditions: T20-resistant V38A, p24 ELISA
Protocol: as §1

HIV-1 V38A = conditions: T20-resistant V38A; p24 ELISA
Protocol: as §1

HIV-1 N113E = conditions: T2635-resistant N113E; p24 ELISA
Protocol: as §1

92UG024 (D, X4) = conditions: clinical isolate 92UG024 (D, X4); MT-2 cells, p24 ELISA day 4
Protocol: as §1

HIV-1 N126K = conditions: T2635-resistant N126K; p24 ELISA
Protocol: as §1

93IN101 (C, R5) = conditions: clinical isolate 93IN101 (C, R5); CEMx174 5.25 M7 cells, p24 ELISA day 7
Protocol: as §1

[3] = test system: cell–cell fusion between H9/HIV-1IIIB cells and MT-2 cells; conditions: read-out: IC50, cell–cell fusion; H9/HIV-1IIIB (Calcein AM) with MT-2 cells, 37 °C, 2 h
Protocol: A dye transfer assay was used to detect HIV-1 Env-mediated cell-cell fusion as described previously. […] For each well of the 96-well plate, 50 μL 2 × 10^4/mL labeled H9/HIV-1IIIB cells were then incubated with 100 μL 1 × 10^5/mL MT-2 cells at 37 °C for 2 h in the presence or absence of the tested peptide at graded concentrations. […] The IC50 values were calculated by using the Calcusyn computer program (Biosoft, Ferguson, MO, USA).

[4] = clinical use; cited from earlier work

Which IC50 [1] does the source give for `CC[C@H](C)[C@H](NC(=O)[C@H](CCC(=O)O)NC(=O)[C@H](CCC(=O)O)NC(=O)[C@@H](NC(=O)[C@H](CCCCN)NC(=O)[C@H](CCCCN)NC(=O)[C@@H](NC(=O)[C@H](Cc1ccc(O)cc1)NC(=O)[C@H](CCC(=O)O)NC(=O)[C@H](CCC(=O)O)NC(=O)[C@@H](NC(=O)[C@H](CCCCN)NC(=O)[C@H](CCCCN)NC(=O)[C@H](CCC(=O)O)NC(=O)[C@H](Cc1c[nH]c2ccccc12)NC(=O)[C@H](CCC(=O)O)NC(=O)[C@H](CCC(=O)O)NC(=O)[C@H](Cc1c[nH]c2ccccc12)NC(=O)[C@@H](NC(=O)[C@H](CCSC)NC(=O)[C@@H](N)CCC(=O)O)[C@@H](C)O)[C@@H](C)CC)[C@@H](C)O)[C@@H](C)CC)C(=O)N[C@@H](CC(C)C)C(=O)N[C@@H](CCCCN)C(=O)O` [HP23] (H-EMTWEEWEKKIEEYTKKIEEILK-OH) here?
The IC50 was 3720 nM.

What about the IC50 (HIV-1 K90E) of the same compound?
The IC50 was 9.4 ± 0.3 nM.

And the IC50 (90US_873 (B, R5))?
Its IC50 is 3.4 ± 0.6 nM.

What about the IC50 (HIV-1 H3C) of the same compound?
The IC50 was 5.4 ± 0.4 nM.

And the IC50 (93BR020 (F, X4/R5))?
Its IC50 is 4.5 ± 0.2 nM.

What about the IC50 (HIV-1 V38A, N42D) of the same compound?
Its IC50 is 2.9 ± 0.3 nM.

What about the IC50 (KNH1135 (A, R5)) of the same compound?
Its IC50 is 2.2 ± 0.3 nM.

What about the IC50 (HIV-1 D36G/E49K/N126K) of the same compound?
The IC50 was greater than 60 nM.

What about the IC50 (HIV-1 Q66R/N113E) of the same compound?
Its IC50 is 3.6 ± 0.3 nM.

And the IC50 (HIV-1 E49K)?
Its IC50 is 13.4 ± 0.7 nM.

And the IC50 (HIV-1 WT)?
Its IC50 is 3.1 ± 0.1 nM.

What about the IC50 (HIV-1 V38E, N42S) of the same compound?
The IC50 was 6.2 ± 0.3 nM.

And the IC50 (KER2018 (A, R5))?
Its IC50 is 1.9 ± 0.2 nM.

And the IC50 (US4GS007 (B, R5))?
The IC50 was 3.9 ± 0.6 nM.

What about the IC50 (HIV-1 A6V) of the same compound?
The IC50 was 1.6 ± 0.5 nM.

And the IC50 (HIV-1 wild-type; wild-type of HP23-resistant panel)?
The IC50 was 3.3 ± 0.3 nM.

What about the IC50 (HIV-1 wild-type; wild-type of T2635-resistant panel) of the same compound?
Its IC50 is 2.8 ± 0.2 nM.

What about the IC50 (92TH009 (A/E, R5)) of the same compound?
Its IC50 is 0.8 ± 0.2 nM.

What about the IC50 (HIV-1 Bal (R5 virus)) of the same compound?
Its IC50 is 5.96 nM.

What about the IC50 (BK132/GS009 (B, X4)) of the same compound?
The IC50 was 7.2 ± 0.5 nM.

What about the IC50 (HIV-1 Q79E/N126K) of the same compound?
Its IC50 is 5.2 ± 0.4 nM.

What about the IC50 (HIV-1 E49K/N126K) of the same compound?
The IC50 was 53.8 ± 1.2 nM.

And the IC50 (HIV-1 IIIB (X4 virus))?
The IC50 was 1.68 nM.

What about the IC50 (HIV-1 Q79E) of the same compound?
The IC50 was 4.2 ± 0.7 nM.

What about the IC50 [2] of the same compound?
Its IC50 is greater than 60 nM.

And the IC50 (NP1525 (A/E, X4/R5))?
Its IC50 is 9.5 ± 0.6 nM.

And the IC50 (HIV-1 K90E/N126K)?
Its IC50 is 4.2 ± 0.3 nM.

What about the IC50 (HIV-1 K154Q) of the same compound?
The IC50 was 7.4 ± 0.4 nM.

And the IC50 (HIV-1 Q66R)?
Its IC50 is 2.8 ± 0.1 nM.

What about the IC50 (HIV-1 V38A, N42T) of the same compound?
The IC50 was 1.5 ± 0.3 nM.

And the IC50 (HIV-1 V38A)?
Its IC50 is 2.1 ± 0.7 nM.

What about the IC50 (HIV-1 N113E) of the same compound?
The IC50 was 2.3 ± 0.5 nM.

What about the IC50 (92UG024 (D, X4)) of the same compound?
The IC50 was 3.5 ± 0.2 nM.

And the IC50 (HIV-1 N126K)?
The IC50 was 8.6 ± 0.4 nM.

What about the IC50 (93IN101 (C, R5)) of the same compound?
The IC50 was 3.7 ± 0.3 nM.

What about the IC50 [3] of the same compound?
The IC50 was 5.12 nM.

What does the source list for enfuvirtide?
half-life (in words) [4]: short half-life; oral bioavailability (in words) [4]: lack of oral bioavailability; IC50 [3]: 16.6 nM
